Results published in the supplement of paper PMC5908809.

What was measured:
Assay in all cases: relative IC50 (inflection point of fitted viability curve, relative to fitted max inhibition); higher = less sensitive
Settings in all cases: 72 h
KAI3 (IL-2 2.5 ng/mL) = test system: KAI3 (IL-2 2.5 ng/mL)
Protocol: (§1)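 Drug sensitivity and resistance testing: 5 concentrations over a 10,000-fold range, 72 h at 37 °C, viability by CellTiter-Glo normalised to DMSO and benzethonium chloride controls. IC50 is the inflection point of a logistic fit (min fixed at 0, max fitted), so it is relative to the fitted maximal inhibition. Kept only where fitted max inhibition is at least 50%.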

DERL-7 (IL-2 2.5 ng/mL) = test system: DERL-7 (IL-2 2.5 ng/mL)
Protocol: as §1

IMC-1 (IL-2 20 ng/mL) = test system: IMC-1 (IL-2 20 ng/mL)
Protocol: as §1

KHYG-1 (IL-2 2.5 ng/mL) = test system: KHYG-1 (IL-2 2.5 ng/mL)
Protocol: as §1

[1] = test system: normal primary NK cells, pool 2 (3 donors) (IL-2 2.5 ng/mL)
Protocol: as §1

[2] = test system: normal primary NK cells, pool 3 (3 donors) (IL-2 2.5 ng/mL)
Protocol: as §1

SNK-6 (IL-2 2.5 ng/mL) = test system: SNK-6 (IL-2 2.5 ng/mL)
Protocol: as §1

NKL (IL-2 2.5 ng/mL) = test system: NKL (IL-2 2.5 ng/mL)
Protocol: as §1

NK-YS (IL-2 2.5 ng/mL) = test system: NK-YS (IL-2 2.5 ng/mL)
Protocol: as §1

[3] = test system: normal primary NK cells, pool 1 (3 donors) (IL-2 2.5 ng/mL)
Protocol: as §1

YT (IL-2 2.5 ng/mL) = test system: YT (IL-2 2.5 ng/mL)
Protocol: as §1

NK-92 (IL-2 2.5 ng/mL) = test system: NK-92 (IL-2 2.5 ng/mL)
Protocol: as §1

[4] = test system: normal primary NK cells, pool 1 (3 donors), resting (IL-2 0 ng/mL)
Protocol: as §1

| SMILES | relative IC50 (KAI3 (IL-2 2.5 ng/mL)) | relative IC50 (DERL-7 (IL-2 2.5 ng/mL)) | relative IC50 (IMC-1 (IL-2 20 ng/mL)) | relative IC50 (KHYG-1 (IL-2 2.5 ng/mL)) | relative IC50 [1] | relative IC50 [2] | relative IC50 (SNK-6 (IL-2 2.5 ng/mL)) | relative IC50 (NKL (IL-2 2.5 ng/mL)) | relative IC50 (NK-YS (IL-2 2.5 ng/mL)) | relative IC50 [3] | relative IC50 (YT (IL-2 2.5 ng/mL)) | relative IC50 (NK-92 (IL-2 2.5 ng/mL)) | relative IC50 [4] |
| --- | --- | --- | --- | --- | --- | --- | --- | --- | --- | --- | --- | --- | --- |
| CC(=O)NCC(=O)N1[C@@H]2CC[C@H]1c1ccc(Nc3ncc(C(F)(F)F)c(NC4CCC4)n3)cc12 | 0.095 µM | 0.0543 µM | 0.0919 µM | 0.0408 µM | 0.766 µM | 1.31 µM | 0.02 µM | 0.101 µM | 0.111 µM | 0.975 µM | 0.439 µM | 0.117 µM | 4.4 µM |
| CC(C)Oc1ccc(C(=O)N[C@H](CNC(=O)CN(C)C)Cc2ccc(-c3cn4cccc([C@H](C)O)c4n3)cc2)cc1Cl | 0.439 µM | 0.0703 µM | 0.261 µM | 0.123 µM |  |  | 0.0249 µM | 0.0543 µM | 0.0567 µM |  | 0.0482 µM | 0.204 µM | 4.57 µM |
| CCn1c(-c2nonc2N)nc2c(C#CC(C)(C)O)ncc(OC[C@H]3CCCNC3)c21 |  | 0.269 µM |  |  | 2.19 µM | 1.87 µM |  |  |  | 2.16 µM |  |  | 1.73 µM |
| CCn1c(-c2nonc2N)nc2cnc(Oc3cccc(NC(=O)c4ccc(OCCN5CCOCC5)cc4)c3)cc21 | 1.28 µM | 0.0634 µM |  | 1.12 µM | 1.97 µM | 1.61 µM | 0.0504 µM | 1.07 µM |  | 1.54 µM |  | 0.287 µM | 1.66 µM |
| CN(c1ccccc1CNc1nc(Nc2ccc3c(c2)CC(=O)N3)ncc1C(F)(F)F)S(C)(=O)=O | 1.38 µM | 0.609 µM | 1.13 µM | 0.553 µM | 1.72 µM | 1.95 µM | 1.6 µM | 0.715 µM | 1.03 µM | 1.13 µM | 1.47 µM | 1.71 µM | 4.29 µM |
| CN(c1ncccc1CNc1nc(Nc2ccc3c(c2)CC(=O)N3)ncc1C(F)(F)F)S(C)(=O)=O | 1.93 µM | 2 µM | 2.96 µM | 1.09 µM | 3.44 µM | 3.74 µM | 2.87 µM | 1.54 µM | 1.31 µM | 2.32 µM | 1.53 µM | 3.04 µM | 4.77 µM |
| Cc1ccc2nc(CN(CCN(Cc3nc4ccc(C)cc4[nH]3)Cc3nc4ccc(C)cc4[nH]3)Cc3nc4ccc(C)cc4[nH]3)[nH]c2c1 | 3.47 µM | 8.27 µM | 8.64 µM | 6.25 µM |  |  | 18.2 µM | 2.16 µM | 8.98 µM | 7.65 µM | 7.07 µM | 3.9 µM | 8.02 µM |
| Cn1cc(C2=Nc3cc(NC(=O)C(N)C4CCCCC4)cc4c3C2=CNNC4=O)cn1 (stereo not drawn) | 0.215 µM | 1 µM | 0.259 µM | 0.134 µM | 2.37 µM | 1.96 µM | 0.238 µM | 0.652 µM | 0.442 µM | 3.52 µM | 0.492 µM | 0.505 µM |  |
| NCC(=O)Nc1ccc(-n2nc(C(F)(F)F)cc2-c2ccc3c(ccc4ccccc43)c2)cc1 | 4.9 µM |  | 4.37 µM | 1.31 µM | 7.2 µM | 7.23 µM | 3.81 µM | 4.07 µM | 1.98 µM |  | 5.54 µM | 4.95 µM |  |
| O=C1NC(=O)/C(=C/c2ccc3nccc(-c4ccncc4)c3c2)S1 | 0.846 µM | 0.543 µM |  | 0.681 µM | 1.25 µM | 1.65 µM | 1.1 µM | 0.644 µM | 0.81 µM | 0.749 µM | 0.529 µM | 1.2 µM | 0.116 µM |
| O=c1cc(N2CCOCC2)oc2c(-c3ccccc3)cccc12 | 11.5 µM | 5.89 µM | 35.2 µM | 13.6 µM | 11.7 µM | 16.8 µM | 4.83 µM | 5.08 µM | 9.06 µM | 13.4 µM | 8.33 µM | 12.3 µM | 6.67 µM |
| COc1ccc(C[C@H](NC(=O)[C@H](C)NC(=O)CN2CCOCC2)C(=O)N[C@@H](Cc2ccccc2)C(=O)C2(C)CO2)cc1 (stereo in doubt) [ONX-0914] | 0.0181 µM | 0.0187 µM | 0.158 µM | 0.142 µM | 0.0274 µM | 0.0618 µM | 0.0626 µM | 0.029 µM | 0.0381 µM | 0.0307 µM | 0.0647 µM | 0.0244 µM | 0.0201 µM |
| Nc1ncnc2c1nc(N)n2[C@@H]1O[C@H](CO)[C@@H](O)[C@H]1O [8-amino-adenosine] | 0.32 µM | 0.489 µM | 1.08 µM | 0.836 µM | 5.81 µM | 6.78 µM | 0.0681 µM | 0.36 µM | 0.757 µM | 6.68 µM | 0.862 µM | 0.431 µM | 13.1 µM |
| Nc1ncnc2c1nc(Cl)n2[C@@H]1O[C@H](CO)[C@@H](O)[C@H]1O [8-chloro-adenosine] | 0.579 µM | 0.641 µM | 19.3 µM | 2.82 µM | 6.01 µM | 7.03 µM | 0.33 µM | 4.72 µM | 1.44 µM | 5.98 µM | 1.87 µM | 2.61 µM | 5.34 µM |
| COc1cc(O)c2c(c1)/C=C/C[C@H](O)[C@H](O)C(=O)/C=C\C[C@H](C)OC2=O [(5Z)-7-Oxozeaenol] | 0.797 µM | 0.572 µM |  | 0.48 µM | 1.6 µM | 2.05 µM | 1.56 µM | 0.156 µM | 1.14 µM | 0.782 µM | 1.06 µM | 1.51 µM | 0.688 µM |
| COCC1(CO)C(=O)C2CCN1CC2 (stereo not drawn) [APR-246] |  |  |  |  | 0.393 µM | 0.442 µM |  |  |  | 0.566 µM |  |  | 0.277 µM |
| CN1CC[C@H](c2c(O)cc(O)c3c(=O)cc(-c4ccccc4Cl)oc23)[C@H](O)C1 [Alvocidib] | 0.0553 µM | 0.174 µM | 0.41 µM | 0.136 µM | 0.15 µM | 0.164 µM | 0.00841 µM | 0.126 µM | 0.142 µM | 0.182 µM | 0.133 µM | 0.117 µM | 0.37 µM |
| CCS(=O)(=O)N1CC(CC#N)(n2cc(-c3ncnc4[nH]ccc34)cn2)C1 [Baricitinib] | 0.0184 µM | 0.0519 µM | 0.451 µM | 0.0262 µM | 0.0544 µM | 0.124 µM | 0.0733 µM | 0.012 µM | 0.0635 µM | 0.0469 µM | 0.163 µM | 0.0958 µM |  |
| CN(C)c1cc2c(cc1Sc1nc3c(N)nccc3n1CCNCC(C)(C)C)OCO2 [CUDC-305] | 0.114 µM | 0.164 µM | 0.301 µM | 0.243 µM | 0.208 µM | 0.308 µM | 0.328 µM | 0.293 µM | 0.158 µM | 0.232 µM | 0.302 µM | 0.204 µM | 0.199 µM |
| C=CC(=O)Nc1cc2c(Nc3ccc(F)c(Cl)c3)ncnc2cc1OCCCN1CCOCC1 [Canertinib] | 1.1 µM | 1.08 µM | 3.7 µM | 2.67 µM | 0.71 µM | 1.29 µM | 2.98 µM | 1.29 µM | 1.99 µM | 0.402 µM | 1.97 µM | 1.18 µM | 0.333 µM |
